Measurements published in US9050378B2, “N2S2 chelate-targeting ligand conjugates” (Board of Regents, The University of Texas System, priority 2003, dated 2015).

Columns and labels:
[1] = tested on: A549 human lung cancer tumor; test: Tissue distribution in lung tumor-bearing nude mice; format: in vivo
Procedure: Female athymic nude mice (NCr-nu/nu, NCI, Bethasda, Md.) were inoculated with human lung cancer cells (A549 tumor cell line, 3×10^6 cells/mouse, intramuscular) by one author in the mid-dorsal region. After the tumor reached 6 mm, separate biodistribution studies using ^99mTc-EC-DG and 18F-FDG were conducted. Each received ^99mTc-EC-DG or 18F-FDG intravenously (n=3/time point). The injection activity was 1-3 μCi/mouse. The injected mass of ^99mTc-EC-DG was 0.2 mg/rodent.

RBA CRL-1747 = test: In vitro cellular uptake and blocking of ^99mTc-EC-angiostatin with unlabeled angiostatin; format: cell-based, rat; conditions: unlabeled angiostatin 0-200 μM, RBA CRL-1747, 2 hours; read-out: IC-50 of angiostatin (inhibition of ^99mTc-EC-angiostatin uptake)
Procedure: The IC-50 of angiostatin was 176 μM (R^2=0.998) (FIG. 3).

[2] = tested on: RBA CRL-1747 mammary tumor; test: Biodistribution in breast (mammary) tumor-bearing rats; format: in vivo, rat; conditions: Table 2
Procedure: Biodistribution was assessed in mammary tumor-bearing rats (RBA CRL-1747, n=3/time interval, iv). Studies were performed 14 to 17 days after implantation when tumors reached approximately 1 cm in diameter. Following administration of the radiotracer, rats were sacrificed at 0.5-4 hrs. The selected tissues were excised, weighed and counted for radioactivity by using a gamma counter (Packard Instruments, Downers Grove, Ill.). The biodistribution of tracer in each sample was calculated as percentage of the injected dose per gram of tissue wet weight (% ID/g).
Biodistribution was assessed in breast tumor-bearing rats (RBA CRL-1747, n=3/time interval, iv). Studies were performed 14 to 17 days after implantation when tumors reached approximately 1 cm in diameter. Following administration of the radiotracer, rats were sacrificed at 0.5-4 hrs. The selected tissues were excised, weighed and counted for radioactivity by using a gamma counter (Packard Instruments, Downers Grove, Ill.). The biodistribution of tracer in each sample was calculated as percentage of the injected dose per gram of tissue wet weight (% ID/g).

## OC[C@H]1OC(O)[C@H]([18F])[C@@H](O)[C@@H]1O (stereo partly drawn) [^18FDG, [^18F]fluorodeoxyglucose, reference compound]
[1]; 30 min
  Blood: 0.793 ± 0.067 % of injected dose per gram of tissue weight
  Brain: 6.557 ± 0.390 % of injected dose per gram of tissue weight
  Heart: 11.94 ± 2.571 % of injected dose per gram of tissue weight
  Intestine: 2.322 ± 0.542 % of injected dose per gram of tissue weight
  Kidney: 1.137 ± 0.117 % of injected dose per gram of tissue weight
  Liver: 1.051 ± 0.057 % of injected dose per gram of tissue weight
  Lung: 2.490 ± 0.209 % of injected dose per gram of tissue weight
  Muscle: 4.876 ± 0.621 % of injected dose per gram of tissue weight
  Spleen: 1.824 ± 0.196 % of injected dose per gram of tissue weight
  Stomach: 5.046 ± 0.461 % of injected dose per gram of tissue weight
  Thyroid: 4.490 ± 0.526 % of injected dose per gram of tissue weight
  Tumor: 2.226 ± 0.150 % of injected dose per gram of tissue weight
  Tumor/Blood: 2.821 ± 0.144
  Tumor/Lung: 0.912 ± 0.119
  Tumor/Muscle: 0.463 ± 0.026
[1]; 2 h
  Blood: 0.236 ± 0.009 % of injected dose per gram of tissue weight
  Brain: 3.113 ± 0.132 % of injected dose per gram of tissue weight
  Heart: 20.33 ± 7.675 % of injected dose per gram of tissue weight
  Intestine: 2.764 ± 0.496 % of injected dose per gram of tissue weight
  Kidney: 0.553 ± 0.104 % of injected dose per gram of tissue weight
  Liver: 0.586 ± 0.040 % of injected dose per gram of tissue weight
  Lung: 2.222 ± 0.137 % of injected dose per gram of tissue weight
  Muscle: 5.409 ± 0.611 % of injected dose per gram of tissue weight
  Spleen: 1.903 ± 0.144 % of injected dose per gram of tissue weight
  Stomach: 4.374 ± 0.864 % of injected dose per gram of tissue weight
  Thyroid: 4.617 ± 0.400 % of injected dose per gram of tissue weight
  Tumor: 1.699 ± 0.172 % of injected dose per gram of tissue weight
  Tumor/Blood: 7.261 ± 1.007
  Tumor/Lung: 0.775 ± 0.113
  Tumor/Muscle: 0.319 ± 0.031
[1]; 4 h
  Blood: 0.203 ± 0.062 % of injected dose per gram of tissue weight
  Brain: 2.065 ± 0.080 % of injected dose per gram of tissue weight
  Heart: 19.35 ± 8.286 % of injected dose per gram of tissue weight
  Intestine: 1.562 ± 0.342 % of injected dose per gram of tissue weight
  Kidney: 0.568 ± 0.027 % of injected dose per gram of tissue weight
  Liver: 0.785 ± 0.039 % of injected dose per gram of tissue weight
  Lung: 2.280 ± 0.182 % of injected dose per gram of tissue weight
  Muscle: 4.743 ± 0.610 % of injected dose per gram of tissue weight
  Spleen: 1.591 ± 0.161 % of injected dose per gram of tissue weight
  Stomach: 2.278 ± 0.455 % of injected dose per gram of tissue weight
  Thyroid: 4.424 ± 0.442 % of injected dose per gram of tissue weight
  Tumor: 1.606 ± 0.182 % of injected dose per gram of tissue weight
  Tumor/Blood: 8.932 ± 1.973
  Tumor/Lung: 0.717 ± 0.106
  Tumor/Muscle: 0.346 ± 0.048
[1]; A549 nude mice, iv
  tumor-to-tissue ratios, ^99mTc-EC-DG versus 18F-FDG: higher tumor/blood ratios

## angiostatin
RBA CRL-1747
  IC50: 176 µM

## O=C([O-])[C@H](C[S-])NCCN[C@@H](CS)C(=O)[O-].[O]=[Tc+3] [^99mTc-EC, ^99mTc-L,L-ethylenedicysteine, reference compound]
[2]; 1 Hour
  Blood: 0.273 ± 0.039 % ID/g
  Intestine: 0.787 ± 0.106 % ID/g
  Kidney: 8.991 ± 0.268 % ID/g
  Liver: 0.367 ± 0.006 % ID/g
  Lung: 0.187 ± 0.029 % ID/g
  Muscle: 0.043 ± 0.002 % ID/g
  Stomach: 0.127 ± 0.106 % ID/g
  Thyroid: 0.229 ± 0.118 % ID/g
  Tumor: 0.149 ± 0.020 % ID/g
  Tumor/Blood: 0.544 ± 0.004
  Tumor/Lung: 0.797 ± 0.022
  Tumor/Muscle: 3.414 ± 0.325
  Urine: 11.045 ± 6.158 % ID/g
[2]; 2 Hour
  Blood: 0.211 ± 0.001 % ID/g
  Intestine: 0.401 ± 0.093 % ID/g
  Kidney: 9.116 ± 0.053 % ID/g
  Liver: 0.286 ± 0.073 % ID/g
  Lung: 0.144 ± 0.002 % ID/g
  Muscle: 0.028 ± 0.009 % ID/g
  Stomach: 0.037 ± 0.027 % ID/g
  Thyroid: 0.106 ± 0.003 % ID/g
  Tumor: 0.115 ± 0.002 % ID/g
  Tumor/Blood: 0.546 ± 0.010
  Tumor/Lung: 0.797 ± 0.002
  Tumor/Muscle: 4.425 ± 1.397
  Urine: 13.192 ± 4.505 % ID/g
[2]; 4 Hour
  Blood: 0.149 ± 0.008 % ID/g
  Intestine: 0.103 ± 0.009 % ID/g
  Kidney: 7.834 ± 1.018 % ID/g
  Liver: 0.234 ± 0.016 % ID/g
  Lung: 0.120 ± 0.012 % ID/g
  Muscle: 0.019 ± 0.001 % ID/g
  Stomach: 0.043 ± 0.014 % ID/g
  Thyroid: 0.082 ± 0.005 % ID/g
  Tumor: 0.096 ± 0.005 % ID/g
  Tumor/Blood: 0.649 ± 0.005
  Tumor/Lung: 0.798 ± 0.007
  Tumor/Muscle: 5.093 ± 0.223
  Urine: 8.693 ± 2.981 % ID/g
[2]; 30 Min.
  Blood: 0.435 ± 0.29 % ID/g
  Intestine: 0.173 ± 0.029 % ID/g
  Kidney: 7.914 ± 0.896 % ID/g
  Liver: 0.508 ± 0.062 % ID/g
  Lung: 0.272 ± 0.019 % ID/g
  Muscle: 0.060 ± 0.006 % ID/g
  Stomach: 0.136 ± 0.060 % ID/g
  Thyroid: 0.219 ± 0.036 % ID/g
  Tumor: 0.342 ± 0.163 % ID/g
  Tumor/Blood: 0.776 ± 0.322
  Tumor/Lung: 1.256 ± 0.430
  Tumor/Muscle: 5.841 ± 3.253
  Urine: 9.124 ± 0.808 % ID/g
